According to patent US9428514B2, “Bromodomain inhibitors” (AbbVie Inc., priority 2013, dated 2016):

System: breast cancer cell line MX-1
Test: MX-1 cell line proliferation assay (3-day, Cell Titer Glo)
Type: cell-based
Conditions: Homo sapiens, MX1, MX-1 cells, 72 hours, read-out: Cellular proliferation: EC50
Description: The impact of compounds of the Examples on cancer cell proliferation was determined using the breast cancer cell line MX-1 (ATCC) in a 3-day proliferation assay. MX-1 cells were maintained in RPMI supplemented with 10% FBS at 37° C. and an atmosphere of 5% CO2. For compound testing, MX-1 cells were plated in 96-well black bottom plates at a density of 5000 cells/well in 90 μL of culture media and incubated at 37° overnight to allow cell adhesion and spreading. Compound dilution series were prepared in DMSO via a 3-fold serial dilution from 3 mM to […]. The DMSO dilution series were then diluted 1:100 in phosphate buffered saline, and 10 μL of the resulted solution were added to the appropriate wells of the MX-1 cell plate. The final compound concentrations in the wells were 3, 1, 0.3, 0.1, 0.03, 0.01, 0.003, 0.001, 0.0003, 0.0001, and 0.00003 μM.
Luminescence readings from the Cell Titer Glo assay were normalized to the DMSO treated cells and analyzed using the GraphPad Prism software with sigmoidal curve fitting to obtain EC50s. The minimum significant ratio (MSR) was determined to evaluate assay reproducibility (Eastwood et al., (2006) J Biomol Screen, 11: 253-261). The overall MSR was determined to be 2.1 and a moving MSR (last six run MSR overtime) has been <2. The EC50 values are reported in Table 1 for the indicated compounds.

Row | SMILES | EC50 [nM]
1 | CCOc1cc(=O)n(C)cc1-c1cc(NC(=O)Cc2cc(C)n(C)n2)ccc1Oc1ccc(F)cc1F [Example 6, N-[4-(2,4-difluorophenoxy)-3-(4-ethoxy-1-methyl-6-oxo-1,6-dihydropyridin-3-yl)phenyl]-2-(1,5-dimethyl-1H-pyrazol-3-yl)acetamide] | 356
2 | CCOc1cc(=O)n(C)cc1-c1cc(NC(=O)Cc2cnc(C)s2)ccc1Oc1ccc(F)cc1F [Example 7, N-[4-(2,4-difluorophenoxy)-3-(4-ethoxy-1-methyl-6-oxo-1,6-dihydropyridin-3-yl)phenyl]-2-(2-methyl-1,3-thiazol-5-yl)acetamide] | 187
3 | CCOc1cc(=O)n(C)cc1-c1cc(NC(=O)Cn2ccc(-c3ccccc3F)n2)ccc1Oc1ccc(F)cc1F [Example 8, N-[4-(2,4-difluorophenoxy)-3-(4-ethoxy-1-methyl-6-oxo-1,6-dihydropyridin-3-yl)phenyl]-2-[3-(2-fluorophenyl)-1H-pyrazol-1-yl]acetamide] | > 3000
4 | CCOc1cc(=O)n(C)cc1-c1cc(NCCCn2cccn2)ccc1Oc1ccc(F)cc1F [Example 9, 5-[2-(2,4-difluorophenoxy)-5-{[3-(1H-pyrazol-1-yl)propyl]amino}phenyl]-4-ethoxy-1-methylpyridin-2(1H)-one] | 746
5 | CCOc1cc(=O)n(C)cc1-c1cc(NCc2cn3c(n2)CCC3)ccc1Oc1ccc(F)cc1F [Example 10, 5-{2-(2,4-difluorophenoxy)-5-[(6,7-dihydro-5H-pyrrolo[1,2-a]imidazol-2-ylmethyl)amino]phenyl}-4-ethoxy-1-methylpyridin-2(1H)-one] | 1890
6 | CCOc1cc(=O)n(C)cc1-c1cc(NCc2cccc(C)n2)ccc1Oc1ccc(F)cc1F [Example 11, 5-[2-(2,4-difluorophenoxy)-5-{[(6-methylpyridin-2-yl)methyl]amino}phenyl]-4-ethoxy-1-methylpyridin-2(1H)-one] | 884
7 | CCOc1cc(=O)n(C)cc1-c1cc(NCc2ncccc2C)ccc1Oc1ccc(F)cc1F [Example 12, 5-[2-(2,4-difluorophenoxy)-5-{[(3-methylpyridin-2-yl)methyl]amino}phenyl]-4-ethoxy-1-methylpyridin-2(1H)-one] | 1020
8 | CCOc1cc(=O)n(C)cc1-c1cc(NCc2ccnn2C)ccc1Oc1ccc(F)cc1F [Example 13, 5-[2-(2,4-difluorophenoxy)-5-{[(1-methyl-1H-pyrazol-5-yl)methyl]amino}phenyl]-4-ethoxy-1-methylpyridin-2(1H)-one] | 1480
9 | CCOc1cc(=O)n(C)cc1-c1cc(NCCCC(=O)OC)ccc1Oc1ccc(F)cc1F [Example 14, methyl 4-{[4-(2,4-difluorophenoxy)-3-(4-ethoxy-1-methyl-6-oxo-1,6-dihydropyridin-3-yl)phenyl]amino}butanoate] | 111
10 | CCOc1cc(=O)n(C)cc1-c1cc(NC(=O)Nc2ccc(C)cc2C)ccc1Oc1ccc(F)cc1F [Example 16, 1-[4-(2,4-difluorophenoxy)-3-(4-ethoxy-1-methyl-6-oxo-1,6-dihydropyridin-3-yl)phenyl]-3-(2,4-dimethylphenyl)urea] | > 3000
11 | CCOc1cc(=O)n(C)cc1-c1cc(NC(=O)Nc2cc(C)ccc2C)ccc1Oc1ccc(F)cc1F [Example 19, 1-[4-(2,4-difluorophenoxy)-3-(4-ethoxy-1-methyl-6-oxo-1,6-dihydropyridin-3-yl)phenyl]-3-(2,5-dimethylphenyl)urea] | 557
12 | CCOc1cc(=O)n(C)cc1-c1cc(NCc2cnco2)ccc1Oc1ccc(F)cc1F [Example 23, 5-{2-(2,4-difluorophenoxy)-5-[(1,3-oxazol-5-ylmethyl)amino]phenyl}-4-ethoxy-1-methylpyridin-2(1H)-one] | > 3000
13 | CCOc1cc(=O)n(C)cc1-c1cc(NCc2cncn2C)ccc1Oc1ccc(F)cc1F [Example 24, 5-[2-(2,4-difluorophenoxy)-5-{[(1-methyl-1H-imidazol-5-yl)methyl]amino}phenyl]-4-ethoxy-1-methylpyridin-2(1H)-one] | 832
14 | CCOc1cc(=O)n(C)cc1-c1cc(NCc2ccn(CC)n2)ccc1Oc1ccc(F)cc1F [Example 25, 5-[2-(2,4-difluorophenoxy)-5-{[(1-ethyl-1H-pyrazol-3-yl)methyl]amino}phenyl]-4-ethoxy-1-methylpyridin-2(1H)-one] | 1540
15 | CCOc1cc(=O)n(C)cc1-c1cc(NC(=O)Cc2cccc(Oc3ccccc3)c2)ccc1Oc1ccc(F)cc1F [Example 28, N-[4-(2,4-difluorophenoxy)-3-(4-ethoxy-1-methyl-6-oxo-1,6-dihydropyridin-3-yl)phenyl]-2-(3-phenoxyphenyl)acetamide] | 605
16 | CCOc1cc(=O)n(C)cc1-c1cc(NC(=O)CCOc2ccccc2)ccc1Oc1ccc(F)cc1F [Example 30, N-[4-(2,4-difluorophenoxy)-3-(4-ethoxy-1-methyl-6-oxo-1,6-dihydropyridin-3-yl)phenyl]-3-phenoxypropanamide] | > 3000
17 | CCOc1cc(=O)n(C)cc1-c1cc(NC(=O)COCc2ccccc2)ccc1Oc1ccc(F)cc1F [Example 35, 2-(benzyloxy)-N-[4-(2,4-difluorophenoxy)-3-(4-ethoxy-1-methyl-6-oxo-1,6-dihydropyridin-3-yl)phenyl]acetamide] | 375
18 | CCOc1cc(=O)n(C)cc1-c1cc(NC(=O)CCCc2ccccc2)ccc1Oc1ccc(F)cc1F [Example 38, N-[4-(2,4-difluorophenoxy)-3-(4-ethoxy-1-methyl-6-oxo-1,6-dihydropyridin-3-yl)phenyl]-4-phenylbutanamide] | 779
19 | CCOc1cc(=O)n(C)cc1-c1cc(NC(=O)CCc2ccccc2)ccc1Oc1ccc(F)cc1F [Example 41, N-[4-(2,4-difluorophenoxy)-3-(4-ethoxy-1-methyl-6-oxo-1,6-dihydropyridin-3-yl)phenyl]-3-phenylpropanamide] | 398

More lines, now with the values ahead:

Row | EC50 [nM] | SMILES
20 | 114 | CCOc1cc(=O)n(C)cc1-c1cc(NC(=O)Cc2cc(F)ccc2Cl)ccc1Oc1ccc(F)cc1F [Example 1, 2-(2-chloro-5-fluorophenyl)-N-[4-(2,4-difluorophenoxy)-3-(4-ethoxy-1-methyl-6-oxo-1,6-dihydropyridin-3-yl)phenyl]acetamide]
21 | 279 | CCOc1cc(=O)n(C)cc1-c1cc(NC(=O)Cc2ccc3c(c2)CCCO3)ccc1Oc1ccc(F)cc1F [Example 2, N-[4-(2,4-difluorophenoxy)-3-(4-ethoxy-1-methyl-6-oxo-1,6-dihydropyridin-3-yl)phenyl]-2-(3,4-dihydro-2H-chromen-6-yl)acetamide]
22 | 433 | CCOc1cc(=O)n(C)cc1-c1cc(NC(=O)Cc2ccc(Cl)cc2F)ccc1Oc1ccc(F)cc1F [Example 3, 2-(4-chloro-2-fluorophenyl)-N-[4-(2,4-difluorophenoxy)-3-(4-ethoxy-1-methyl-6-oxo-1,6-dihydropyridin-3-yl)phenyl]acetamide]
23 | 425 | CCOc1cc(=O)n(C)cc1-c1cc(NC(=O)Cc2cnn(C)c2)ccc1Oc1ccc(F)cc1F [Example 4, N-[4-(2,4-difluorophenoxy)-3-(4-ethoxy-1-methyl-6-oxo-1,6-dihydropyridin-3-yl)phenyl]-2-(1-methyl-1H-pyrazol-4-yl)acetamide]
24 | 681 | CCOc1cc(=O)n(C)cc1-c1cc(NC(=O)Cc2ccc(C)nc2)ccc1Oc1ccc(F)cc1F [Example 5, N-[4-(2,4-difluorophenoxy)-3-(4-ethoxy-1-methyl-6-oxo-1,6-dihydropyridin-3-yl)phenyl]-2-(6-methylpyridin-3-yl)acetamide]
25 | 730 | CCOc1cc(=O)n(C)cc1-c1cc(NC(=O)CCS(=O)(=O)c2ccccc2)ccc1Oc1ccc(F)cc1F [Example 27, N-[4-(2,4-difluorophenoxy)-3-(4-ethoxy-1-methyl-6-oxo-1,6-dihydropyridin-3-yl)phenyl]-3-(phenylsulfonyl)propanamide]
26 | 433 | CCOc1cc(=O)n(C)cc1-c1cc(NC(=O)Cc2ccc(S(C)(=O)=O)cc2)ccc1Oc1ccc(F)cc1F [Example 29, N-[4-(2,4-difluorophenoxy)-3-(4-ethoxy-1-methyl-6-oxo-1,6-dihydropyridin-3-yl)phenyl]-2-[4-(methylsulfonyl)phenyl]acetamide]
27 | 464 | CCOc1cc(=O)n(C)cc1-c1cc(NC(=O)COc2ccc(C)cc2)ccc1Oc1ccc(F)cc1F [Example 33, N-[4-(2,4-difluorophenoxy)-3-(4-ethoxy-1-methyl-6-oxo-1,6-dihydropyridin-3-yl)phenyl]-2-(4-methylphenoxy)acetamide]
28 | 476 | CCOc1cc(=O)n(C)cc1-c1cc(NC(=O)Cc2noc3ccccc23)ccc1Oc1ccc(F)cc1F [Example 36, 2-(1,2-benzoxazol-3-yl)-N-[4-(2,4-difluorophenoxy)-3-(4-ethoxy-1-methyl-6-oxo-1,6-dihydropyridin-3-yl)phenyl]acetamide]
29 | 1440 | CCOc1cc(=O)n(C)cc1-c1cc(NC(=O)Cc2ccc(Oc3ccccc3)cc2)ccc1Oc1ccc(F)cc1F [Example 37, N-[4-(2,4-difluorophenoxy)-3-(4-ethoxy-1-methyl-6-oxo-1,6-dihydropyridin-3-yl)phenyl]-2-(4-phenoxyphenyl)acetamide]
30 | 595 | CCOc1cc(=O)n(C)cc1-c1cc(NC(=O)Cc2ccc3ccccc3c2)ccc1Oc1ccc(F)cc1F [Example 39, N-[4-(2,4-difluorophenoxy)-3-(4-ethoxy-1-methyl-6-oxo-1,6-dihydropyridin-3-yl)phenyl]-2-(naphthalen-2-yl)acetamide]
